Like-named read-outs stand apart in the source and are kept apart here.
Experiments:
Format in all cases: cell-based, influenza virus
IFVA/Weiss/43 = assay: cytopathic effect (CPE) antiviral test in MDCK cells, IFVA/Weiss/43
IFV A/PR/8/34 = assay: cytopathic effect (CPE) antiviral test in MDCK cells, IFV A/PR/8/34; settings: unidentified influenza virus, PR/8, MDCK, 120 h, read-out: EC50(IFV A/PR/8/34)
IFVA/Mal/302/54 = assay: cytopathic effect (CPE) antiviral test in MDCK cells, IFVA/Mal/302/54; settings: unidentified influenza virus, MDCK, 120 h, read-out: EC50(IFVA/Mal/302/54), MDCK cells, CPE method, CCK-8 cell viability, 5 days
[1] = unidentified influenza virus, MDCK, 120 h, read-out: EC50(IFVA/Weiss/43), MDCK cells, CPE method, CCK-8 cell viability, 5 days

| SMILES | EC50 (IFVA/Weiss/43; [1]) [nM] | EC50 (IFV A/PR/8/34) [nM] | EC50 (IFVA/Mal/302/54) [nM] | EC50 (IFVA/Weiss/43; read-out: EC50(IFVA/Weiss/43), MDCK cells, CPE method, CCK-8 cell viability, 5 days) [nM] |
| --- | --- | --- | --- | --- |
| O=C(Nc1ccc2nc(-c3ccnc(C(=O)N4CCN(C(c5ccccc5)c5nnn(C(F)F)n5)CC4)c3)oc2c1)[C@@H]1CC1(F)F (mixture of isomers) [Compound 103, (S)—N-(2-(2-(4-((R/S)-(2-(difluoromethyl)-2H-tetrazol-5-yl)(phenyl)methyl)piperazine-1-carbonyl)pyridin-4-yl)benzo[d]oxazol-6-yl)-2,2-difluorocyclopropane-1-carboxamide] | 7 | 26 | 17 |  |
| O=C(Nc1ccc2oc(-c3ccnc(C(=O)N4CCN(C(c5ccccc5)c5nnn(C(F)F)n5)CC4)c3)cc2c1)[C@@H]1C[C@@H]1F (mixture of isomers) [Compound 111, (1S,2S)—N-(2-(2-(4-((R/S)-(2-(difluoromethyl)-2H-tetrazol-5-yl)(phenyl)methyl)piperazine-1-carbonyl)pyridin-4-yl)benzofuran-5-yl)-2-fluorocyclopropane-1-carboxamide] | 0.5 | 2 | 2 |  |
| Cc1nnn(C(c2ccccc2)C2CCN(C(=O)c3cc(-c4nc5cc(NC(=O)[C@@H]6C[C@@H]6F)ccc5o4)ccn3)CC2)n1 (mixture of isomers) [Compound 120, (1S,2S)-2-fluoro-N-(2-(2-(4-((R/S)-(5-methyl-2H-tetrazol-2-yl)(phenyl)methyl)piperidine-1-carbonyl)pyridin-4-yl)benzo[d]oxazol-5-yl)cyclopropanecarboxamide] | 3 | 12 | 14 |  |
| O=C(Nc1ccc2oc(-c3ccnc(C(=O)N4CCN(C(c5ccccc5)c5nnn(C(F)F)n5)CC4)c3)nc2c1)[C@H]1C[C@H]1F (stereo partly drawn) [Compound 33, (1R,2R)-2-fluoro-N-(2-(2-(4-((2-difluoromethyl-2H-tetrazol-5-yl)(phenyl)methyl)piperazine-1-carbonyl)pyridin-4-yl)benzo[d]oxazol-5-yl)cyclopropane-1-carboxamide] | 16 |  | 31 |  |
| CS(=O)(=O)Nc1ccc2oc(-c3ccnc(C(=O)N4CCN(C(c5ccccc5)c5nnn(C(F)F)n5)CC4)c3)nc2c1 (stereo not drawn) [Compound 34] | > 10000 |  | > 10000 |  |
| Cn1nnc(C(c2ccccc2)N2CCN(C(=O)c3cc(-c4nc5cc(NC(=O)C6CC6)ccc5o4)ccn3)CC2)n1 (stereo not drawn) [Compound 35, N-(2-(2-(4-((2-methyl-2H-tetrazol-5-yl)(phenyl)methyl)piperazine-1-carbonyl)pyridin-4-yl)benzo[d]oxazol-5-yl)cyclopropanecarboxamide] | 12 |  | 19 |  |
| O=C(c1cc(-c2nc3cc(N4CCCC4=O)ccc3o2)ccn1)N1CCN(C(c2ccccc2)c2nnn(C(F)F)n2)CC1 (stereo not drawn) [Compound 37, 1-(2-(2-(4-((2-(difluoromethyl)-2H-tetrazol-5-yl)(phenyl)methyl)piperazine-1-carbonyl)pyridin-4-yl)benzo[d]oxazol-5-yl)pyrrolidin-2-one] | 17 |  | 22 |  |
| Cn1nnc(C(c2ccccc2)N2CCN(C(=O)c3cc(-c4nc5cc(O[C@H]6CCOC6)ccc5o4)ccn3)CC2)n1 (stereo partly drawn) [Compound 38, (4-((2-methyl-2H-tetrazol-5-yl)(phenyl)methyl)piperazin-1-yl)(4-(5-(((S)-tetrahydrofuran-3-yl)oxy)benzo[d]oxazol-2-yl)pyridin-2-yl)methanone] |  |  | 18 | 20 |
| O=C(c1cc(-c2nc3cc(O[C@H]4CCOC4)ccc3o2)ccn1)N1CCN(C(c2ccccc2)c2nnn(C(F)F)n2)CC1 (stereo partly drawn) [Compound 39, (4-((2-(difluoromethyl)-2H-tetrazol-5-yl)(phenyl)methyl)piperazin-1-yl)(4-(5-(((S)-tetrahydrofuran-3-yl)oxy)benzo[d]oxazol-2-yl)pyridin-2-yl)methanone] | 4 |  | 11 |  |
| CC(=O)Nc1ccc2oc(-c3ccnc(C(=O)N4CCN(C(c5ccccc5)c5nnn(C(F)F)n5)CC4)c3)nc2c1 (stereo not drawn) [Compound 40, N-(2-(2-(4-((2-(difluoromethyl)-2H-tetrazol-5-yl)(phenyl)methyl)piperazine-1-carbonyl)pyridin-4-yl)benzo[d]oxazol-5-yl)acetamide] | 16 |  | 24 |  |
| Cn1nnc(C(c2ccccc2)N2CCN(C(=O)c3cc(-c4nc5cc(OC(F)F)ccc5o4)ccn3)CC2)n1 (stereo not drawn) [Compound 44, (4-(5-(difluoromethoxy)benzo[d]oxazol-2-yl)pyridin-2-yl)(4-((2-methyl-2H-tetrazol-5-yl)(phenyl)methyl)piperazin-1-yl)methanone] | 110 |  | 65 |  |
| CC(=O)Nc1ccc2oc(-c3ccnc(C(=O)N4CCC(O)(C(c5ccccc5)c5nnn(C)n5)CC4)c3)nc2c1 (stereo not drawn) [Compound 47, N-(2-(2-(4-hydroxy-4-((2-methyl-2H-tetrazol-5-yl)(phenyl)methyl)piperidine-1-carbonyl)pyridin-4-yl)benzo[d]oxazol-5-yl)acetamide] | 35 |  | 81 |  |
| CC(=O)Nc1ccc2oc(-c3ccnc(C(=O)N4CCC(=C(c5ccccc5)c5nnn(C)n5)CC4)c3)nc2c1 [Compound 49, N-(2-(2-(4-((2-methyl-2H-tetrazol-5-yl)(phenyl)methylene)piperidine-1-carbonyl)pyridin-4-yl)benzo[d]oxazol-5-yl)acetamide] | 112 |  | 180 |  |
| Cn1nnc(C(c2ccccc2)N2CCN(C(=O)c3cc(-c4nc5cc(N6CCOC6=O)ccc5o4)ccn3)CC2)n1 (stereo not drawn) [Compound 50, 3-(2-(2-(4-((2-methyl-2H-tetrazol-5-yl)(phenyl)methyl)piperazine-1-carbonyl)pyridin-4-yl)benzo[d]oxazol-5-yl)oxazolidin-2-one] | 242 |  | 120 |  |
| COC(=O)Nc1ccc2oc(-c3ccnc(C(=O)N4CCN(C(c5ccccc5)c5nnn(C)n5)CC4)c3)nc2c1 (stereo not drawn) [Compound 51, Methyl (2-(2-(4-((2-methyl-2H-tetrazol-5-yl)(phenyl)methyl)piperazine-1-carbonyl)pyridin-4-yl)benzo[d]oxazol-5-yl)carbamate] | 84 |  | 34 |  |
| CC(=O)Nc1ccc2oc(-c3ccnc(C(=O)N4CCN(C(c5ccccc5)c5nnn(C(F)F)n5)CC4)c3F)nc2c1 (stereo not drawn) [Compound 56, N-(2-(2-(4-((2-(difluoromethyl)-2H-tetrazol-5-yl)(phenyl)methyl)piperazine-1-carbonyl)-3-fluoropyridin-4-yl)benzo[d]oxazol-5-yl)acetamide] | 17 |  | 33 |  |
| CC(=O)Nc1cc2nc(-c3ccnc(C(=O)N4CCN(C(c5ccccc5)c5nnn(C(F)F)n5)CC4)c3)oc2cc1F (stereo not drawn) [Compound 59, N-(2-(2-(4-((2-(difluoromethyl)-2H-tetrazol-5-yl)(phenyl)methyl)piperazine-1-carbonyl)pyridin-4-yl)-6-fluorobenzo[d]oxazol-5-yl)acetamide] | 56 |  | 58 |  |
| CC(=O)Nc1ccc2nn(-c3ccnc(C(=O)N4CCN(C(c5ccccc5)c5nnn(C(F)F)n5)CC4)c3)cc2c1 (stereo not drawn) [Compound 60, N-(2-(2-(4-((2-(difluoromethyl)-2H-tetrazol-5-yl)(phenyl)methyl)piperazine-1-carbonyl)pyridin-4-yl)-2H-indazol-5-yl)acetamide] | 54 |  | 84 |  |
| CC(=O)Nc1cc(F)c2oc(-c3ccnc(C(=O)N4CCN(C(c5ccccc5)c5nnn(C(F)F)n5)CC4)c3)nc2c1 (stereo not drawn) [Compound 61, N-(2-(2-(4-((2-(difluoromethyl)-2H-tetrazol-5-yl)(phenyl)methyl)piperazine-1-carbonyl)pyridin-4-yl)-7-fluorobenzo[d]oxazol-5-yl)acetamide] | 28 |  | 78 |  |
| CC(=O)Nc1ccc2nc(-c3ccnc(C(=O)N4CCN(C(c5ccccc5)c5nnn(C(F)F)n5)CC4)c3)oc2c1 (stereo not drawn) [Compound 70, N-(2-(2-(4-((2-(difluoromethyl)-2H-tetrazol-5-yl)(phenyl)methyl)piperazine-1-carbonyl)pyridin-4-yl)benzo[d]oxazol-6-yl)acetamide] | 32 |  | 32 |  |
| O=C(c1cc(-c2nc3cc(N4CCCC4)ccc3o2)ccn1)N1CCN(C(c2ccccc2)c2nnn(C(F)F)n2)CC1 (stereo not drawn) [Compound 71, (4-((2-(difluoromethyl)-2H-tetrazol-5-yl)(phenyl)methyl)piperazin-1-yl)(4-(5-(pyrrolidin-1-yl)benzo[d]oxazol-2-yl)pyridin-2-yl)methanone] | 31 |  | 52 |  |
| O=C(Nc1ccc2oc(-c3ccnc(C(=O)N4C5CCC4CN(C(c4ccccc4)c4nnn(C(F)F)n4)C5)c3)nc2c1)C1CC1 (stereo not drawn) [Compound 175, N-(2-(2-(3-((2-(difluoromethyl)-2H-tetrazol-5-yl)(phenyl)methyl)-3,8-diazabicyclo[3.2.1]octane-8-carbonyl)pyridin-4-yl)benzo[d]oxazol-5-yl)cyclopropanecarboxamide] | 13 |  | 21 |  |
| O=C1CCCN1c1ccc2oc(-c3ccnc(C(=O)N4C5CCC4CN(C(c4ccccc4)c4nnn(C(F)F)n4)C5)c3)nc2c1 (stereo not drawn) [Compound 176, 1-(2-(2-(3-((2-(difluoromethyl)-2H-tetrazol-5-yl)(phenyl)methyl)-3,8-diazabicyclo[3.2.1]octane-8-carbonyl)pyridin-4-yl)benzo[d]oxazol-5-yl)pyrrolidin-2-one] | 33 |  | 21 |  |
| Cn1nnc(C(c2ccccc2)N2CCN(C(=O)c3cc(-c4nc5cc(NC(=O)C6(F)CC6)ccc5o4)ccn3)CC2)n1 (stereo not drawn) [Compound 194, 1-fluoro-N-(2-(2-(4-((2-methyl-2H-tetrazol-5-yl)(phenyl)methyl)piperazine-1-carbonyl)pyridin-4-yl)benzo[d]oxazol-5-yl)cyclopropane-1-carboxamide] | 24 |  | 25 |  |

— patent US20230079045A1 (priority 2019, published 2023)
